Test results published in patent US20200246364A1, “MEDICAL APPLICATION OF COMPOSITION OF FRUCTOSE-1,6-BISPHOSPHATE AND BLOOD CONCENTRATION STABILIZER THEREOF” (ZHEJIANG UNIVERSITY, priority 2017, published 2020).

Assays:
[1] = test system: U87-MG; assay: Western Blot of key glycolytic enzymes; assay type: cell-based, human; details: 0.8 mM, 1 h to 48 h
Method: Human glioma cell strains (U87-MG, KNS-89, SHG-44) were respectively incubated in culture media containing 0.8 mM of trisodium fructose-1,6-bisphosphate salt, and 1.6 mM of trisodium fructose-1,6-bisphosphate salt, and 1.6 mM of 2-deoxyglucose, and the contents of lactic acid as the final glycolytic product released by the cells in the culture media were measured after 12 h, 24 h, 36 h, and 48 h. […] Human glioma cell strain (U87-MG) was incubated in the culture medium containing 0.8 mM of trisodium fructose-1,6-bisphosphate salt for 1 h, 3 h, 6 h, 12 h, 24 h, 36 h, and 48 h, and level changes of key metabolic enzymes in the glycolytic pathway of cells were measured by Western Blot at the respective time points.

[2] = test system: KNS-89; assay: Mitochondrial oxidative phosphorylation in glioma cells (ATP/ADP, NADH/NAD+, ATP); assay type: cell-based, human
[3] = test system: SHG-44; assay: as above; assay type: cell-based, human
[4] = test system: peripheral neuralgia induced by paclitaxel; assay: Peripheral neuralgia induced by paclitaxel, hot plate experiment; assay type: in vivo, ICR mice
Method: In this study, paclitaxel (2.8 mg/kg, 10 ml/kg) was injected intraperitoneally every other day, 4 times in total (days 1, 3, 5, 7) to induce peripheral neuralgia model in ICR female mice with a body weight of 20-24 g, and this model was used to observe the preventive effect of fructose-1,6-bisphosphate on the peripheral neuralgia caused by the chemotherapeutic agent. The paclitaxel antitumor agent is one of the first-line agents for human malignant tumors. Dose-limiting toxicity of paclitaxel mainly includes neurotoxicity and myelosuppression, the latter has been successfully overcome by using granulocyte colony-stimulating factor. However, the neurotoxicity, behaving as neuropathic pain, is still a worldwide problem, because the pain caused by this chemotherapy is not sensitive to any clinically used analgesics, and thus some patients have to reduce the dose until withdrawing the agent, which seriously affects the effect of the chemotherapy or even causes a failure of the chemotherapy. Some pains caused by the paclitaxel chemotherapy may not be eliminated immediately after the agent withdrawal, and often continues for months or even years, which seriously affects the life quality of tumor patients. In view of this, the peripheral neuralgia caused by paclitaxel is a representative pain after cancer treatment, and the animal pain model induced by paclitaxel is also representative.
A hot plate method was used to screen mice having relatively uniform heat-sensitive responses for experiments. […]
The heat-sensitive response of hind paws of the mice was measured with a hot plate experiment (52° C.±0.3) at 2 pm to 4 pm every day. […] In this way, a latent period of licking or retracting the hind paws was recorded. […] After the paclitaxel injection finished, the fructose-1,6-bisphosphate was continuously administrated and the heat-sensitive responses of the animals in each group were measured. […]

Compound: O=C(COP(=O)(O)O)[C@@H](O)[C@H](O)[C@H](O)COP(=O)(O)O [FBP, fructose-1,6-bisphosphate]
- levels of HK2, PFKFB3, PKM2 and LDH5 (Western Blot) [1]: quickly and continuously down-regulated
- ratio of ATP/ADP (CON = 1.00) ([2]; KNS-89, 0.8 mM or 1.6 mM, 36 h): 2.91 ± 0.03
- ratio of NADH/NAD+ (CON = 1.00) ([2]; KNS-89, 0.8 mM or 1.6 mM, 36 h): 9.44 ± 0.75
- ATP level ([2]; KNS-89, 36 h, vs control group): significantly increased
- ratio of ATP/ADP (CON = 1.00) ([3]; SHG-44, 0.8 mM or 1.6 mM, 36 h): 3.82 ± 0.68
- ratio of NADH/NAD+ (CON = 1.00) ([3]; SHG-44, 0.8 mM or 1.6 mM, 36 h): 3.40 ± 0.15
- ATP level ([3]; SHG-44, 36 h, vs control group): significantly increased
- hind paw retraction latent period (hot plate 52° C.) ([4]; 400 mg/kg ig once per day, day 7 and any later time point, vs model group): significantly longer
- efficacy against peripheral neuralgia over treatment duration ([4]; high-dose FBP (400 mg/kg)): gradually disappears
- efficacy against peripheral neuralgia over treatment duration ([4]; low-dose FBP (200 mg/kg)): gradually increases
